Experimental data as given in US12435060B2, “Acylamino bridged heterocyclic compound, and composition and application thereof” (BEIJING SCITECH-MQ PHARMACEUTICALS LIMITED, priority 2019, dated 2025).

Tested on: HT29 cells
Test: Inhibition of cell necrosis (CCK8 method), induced programmed necrosis of HT29 cells
Format: cell-based
Details: Homo sapiens, HT-29; rescue from necrosis induced by TNF-α 20 ng/mL, AT-406 1 μM, Z-VAD-FMK 20 μM; 16-20 hours; CCK-8, OD 450 nm
How it was run: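 HT29 cells in McCOY's 5A with 10% FBS were pre-treated for 30 min with compound (9 fourfold steps, 25000 to 0.38 nM final, 0.25% DMSO). Necrosis was then induced with TNF-α 20 ng/mL, AT-406 1 μM and Z-VAD-FMK 20 μM for 16-20 h. Viability was read by CCK-8 OD450, normalized between uninduced and induced wells, and IC50 was curve-fitted.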

| SMILES | IC50 |
| --- | --- |
| Cc1cnc(NC(=O)c2nnc(CC3CCCCC3)[nH]2)cc1-c1cc(OCC2CCOCC2)ccc1Cl [Example 427, N-(4-(2-chloro-5-((tetrahydro-2H-pyran-4-yl)methoxy)phenyl)-5-methylpyridin-2-yl)-5-(cyclohexylmethyl)-4H-1,2,4-triazole-3-carboxamide] | 100 to 1000 nM |
| O=C(Nc1cc(-c2cc(OCCC3CCOCC3)ccc2Cl)c(F)cn1)c1nnc(Cc2ccccc2F)[nH]1 [Example 428, N-(4-(2-chloro-5-(2-(tetrahydro-2H-pyran-4-yl)ethoxy)phenyl)-5-fluoropyridin-2-yl)-5-(2-fluorobenzyl)-4H-1,2,4-triazole-3-carboxamide] | ≤ 100 nM |
| O=C(Nc1cc(-c2cc(OCCC3CCOCC3)ccc2Cl)c(F)cn1)c1nnc(CC2CCCCC2)[nH]1 [Example 429, N-(4-(2-chloro-5-(2-(tetrahydro-2H-pyran-4-yl)ethoxy)phenyl)-5-fluoropyridin-2-yl)-5-(cyclohexylmethyl)-4H-1,2,4-triazole-3-carboxamide] | ≤ 100 nM |
| O=C(Nc1cc(-c2cc(OCCC3CCOCC3)ccc2Cl)c(Cl)cn1)c1nnc(Cc2ccccc2F)[nH]1 [Example 430, N-(5-chloro-4-(2-chloro-5-(2-(tetrahydro-2H-pyran-4-yl)ethoxy)phenyl)pyridin-2-yl)-5-(2-fluorobenzyl)-4H-1,2,4-triazole-3-carboxamide] | 100 to 1000 nM |
| O=C(Nc1cc(-c2cc(OCCC3CCOCC3)ccc2Cl)c(Cl)cn1)c1nnc(CC2CCCCC2)[nH]1 [Example 431, N-(5-chloro-4-(2-chloro-5-(2-(tetrahydro-2H-pyran-4-yl)ethoxy)phenyl)pyridin-2-yl)-5-(cyclohexylmethyl)-4H-1,2,4-triazole-3-carboxamide] | 100 to 1000 nM |
| Cc1ccc(OCCCC(C)(C)O)cc1-c1cc(NC(=O)c2nnc(Cc3ccccc3)[nH]2)ncn1 [Example 432, 5-benzyl-N-(6-(5-((4-hydroxy-4-methylpentyl)oxy)-2-methylphenyl)pyrimidin-4-yl)-4H-1,2,4-triazole-3-carboxamide] | ≤ 100 nM |
| Cc1ccc(OCCCC(C)(C)O)cc1-c1cc(NC(=O)c2nnc(Cc3ccccc3F)[nH]2)ncn1 [Example 433, 5-(2-fluorobenzyl)-N-(6-(5-((4-hydroxy-4-methylpentyl)oxy)-2-methylphenyl)pyrimidin-4-yl)-4H-1,2,4-triazole-3-carboxamide] | ≤ 100 nM |
| Cc1ccc(OCCCC(C)(C)O)cc1-c1cc(NC(=O)c2nnc(Cc3cccc(F)c3)[nH]2)ncn1 [Example 434, 5-(3-fluorobenzyl)-N-(6-(5-((4-hydroxy-4-methylpentyl)oxy)-2-methylphenyl)pyrimidin-4-yl)-4H-1,2,4-triazole-3-carboxamide] | ≤ 100 nM |
| Cc1ccc(OCCCC(C)(C)O)cc1-c1cc(NC(=O)c2nnc(Cc3ccc(F)cc3F)[nH]2)ncn1 [Example 435, 5-(2,4-difluorobenzyl)-N-(6-(5-((4-hydroxy-4-methylpentyl)oxy)-2-methylphenyl)pyrimidin-4-yl)-4H-1,2,4-triazole-3-carboxamide] | ≤ 100 nM |
| Cc1ccc(OCCCC(C)(C)O)cc1-c1cc(NC(=O)c2nnc(Cc3cc(F)ccc3F)[nH]2)ncn1 [Example 436, 5-(2,5-difluorobenzyl)-N-(6-(5-((4-hydroxy-4-methylpentyl)oxy)-2-methylphenyl)pyrimidin-4-yl)-4H-1,2,4-triazole-3-carboxamide] | ≤ 100 nM |
| Cc1ccc(OCCCC(C)(C)O)cc1-c1cc(NC(=O)c2nnc(Cc3cc(F)cc(F)c3)[nH]2)ncn1 [Example 437, 5-(3,5-difluorobenzyl)-N-(6-(5-((4-hydroxy-4-methylpentyl)oxy)-2-methylphenyl)pyrimidin-4-yl)-4H-1,2,4-triazole-3-carboxamide] | 100 to 1000 nM |
| Cc1ccc(OCCCC(C)(C)O)cc1-c1cc(NC(=O)c2nnc(Cc3cccc(Cl)c3F)[nH]2)ncn1 [Example 438, 5-(3-chloro-2-fluorobenzyl)-N-(6-(5-((4-hydroxy-4-methylpentyl)oxy)-2-methylphenyl)pyrimidin-4-yl)-4H-1,2,4-triazole-3-carboxamide] | 100 to 1000 nM |
| Cc1ccc(OCCCC(C)(C)O)cc1-c1cc(NC(=O)c2nnc(CC3CCCC3)[nH]2)ncn1 [Example 439, 5-(cyclopentylmethyl)-N-(6-(5-((4-hydroxy-4-methylpentyl)oxy)-2-methylphenyl)pyrimidin-4-yl)-4H-1,2,4-triazole-3-carboxamide] | ≤ 100 nM |
| Cc1ccc(OCCCC(C)(C)O)cc1-c1cc(NC(=O)c2nnc(CC3CCCCC3)[nH]2)ncn1 [Example 440, 5-(cyclohexylmethyl)-N-(6-(5-((4-hydroxy-4-methylpentyl)oxy)-2-methylphenyl)pyrimidin-4-yl)-4H-1,2,4-triazole-3-carboxamide] | ≤ 100 nM |
| Cc1ccc(OCC2CCOCC2)cc1-c1cc(NC(=O)c2nnc(Cc3ccccc3)[nH]2)ncn1 [Example 441, 5-benzyl-N-(6-(2-methyl-5-((tetrahydro-2H-pyran-4-yl)methoxy)phenyl)pyrimidin-4-yl)-4H-1,2,4-triazole-3-carboxamide] | ≤ 100 nM |
| Cc1ccc(OCC2CCOCC2)cc1-c1cc(NC(=O)c2nnc(Cc3ccccc3F)[nH]2)ncn1 [Example 442, 5-(2-fluorobenzyl)-N-(6-(2-methyl-5-((tetrahydro-2H-pyran-4-yl)methoxy)phenyl)pyrimidin-4-yl)-4H-1,2,4-triazole-3-carboxamide] | ≤ 100 nM |
| Cc1ccc(OCC2CCOCC2)cc1-c1cc(NC(=O)c2nnc(CC3CCCC3)[nH]2)ncn1 [Example 443, 5-(cyclopentylmethyl)-N-(6-(2-methyl-5-((tetrahydro-2H-pyran-4-yl)methoxy)phenyl)pyrimidin-4-yl)-4H-1,2,4-triazole-3-carboxamide] | ≤ 100 nM |
| Cc1ccc(OCC2CCOCC2)cc1-c1cc(NC(=O)c2nnc(CC3CCCCC3)[nH]2)ncn1 [Example 444, 5-(cyclohexylmethyl)-N-(6-(2-methyl-5-((tetrahydro-2H-pyran-4-yl)methoxy)phenyl)pyrimidin-4-yl)-4H-1,2,4-triazole-3-carboxamide] | ≤ 100 nM |
| Cc1ccc(OCCC2CCOCC2)cc1-c1cc(NC(=O)c2nnc(Cc3ccccc3)[nH]2)ncn1 [Example 445, 5-benzyl-N-(6-(2-methyl-5-(2-(tetrahydro-2H-pyran-4-yl)ethoxy)phenyl)pyrimidin-4-yl)-4H-1,2,4-triazole-3-carboxamide] | ≤ 100 nM |
| Cc1ccc(OCCC2CCOCC2)cc1-c1cc(NC(=O)c2nnc(Cc3ccccc3F)[nH]2)ncn1 [Example 446, 5-(2-fluorobenzyl)-N-(6-(2-methyl-5-(2-(tetrahydro-2H-pyran-4-yl)ethoxy)phenyl)pyrimidin-4-yl)-4H-1,2,4-triazole-3-carboxamide] | ≤ 100 nM |
| Cc1ccc(OCCC2CCOCC2)cc1-c1cc(NC(=O)c2nnc(CC3CCCC3)[nH]2)ncn1 [Example 447, 5-(cyclopentylmethyl)-N-(6-(2-methyl-5-(2-(tetrahydro-2H-pyran-4-yl)ethoxy)phenyl)pyrimidin-4-yl)-4H-1,2,4-triazole-3-carboxamide] | ≤ 100 nM |
| Cc1ccc(OCCC2CCOCC2)cc1-c1cc(NC(=O)c2nnc(CC3CCCCC3)[nH]2)ncn1 [Example 448, 5-(cyclohexylmethyl)-N-(6-(2-methyl-5-(2-(tetrahydro-2H-pyran-4-yl)ethoxy)phenyl)pyrimidin-4-yl)-4H-1,2,4-triazole-3-carboxamide] | ≤ 100 nM |
| Cc1ccc(OCCN2CCCCC2)cc1-c1cc(NC(=O)c2nnc(Cc3ccccc3F)[nH]2)ncn1 [Example 449, 5-(2-fluorobenzyl)-N-(6-(2-methyl-5-(2-(piperidin-1-yl)ethoxy)phenyl)pyrimidin-4-yl)-4H-1,2,4-triazole-3-carboxamide] | 100 to 1000 nM |
| CC(C)(O)CCCOc1ccc(C(F)(F)F)c(-c2cc(NC(=O)c3nnc(Cc4ccccc4)[nH]3)ncn2)c1 [Example 450, 5-benzyl-N-(6-(5-((4-hydroxy-4-methylpentyl)oxy)-2-(trifluoromethyl)phenyl)pyrimidin-4-yl)-4H-1,2,4-triazole-3-carboxamide] | ≤ 100 nM |
| CC(C)(O)CCCOc1ccc(C(F)(F)F)c(-c2cc(NC(=O)c3nnc(Cc4ccccc4F)[nH]3)ncn2)c1 [Example 451, 5-(2-fluorobenzyl)-N-(6-(5-((4-hydroxy-4-methylpentyl)oxy)-2-(trifluoromethyl)phenyl)pyrimidin-4-yl)-4H-1,2,4-triazole-3-carboxamide] | ≤ 100 nM |
| CC(C)(O)CCCOc1ccc(C(F)(F)F)c(-c2cc(NC(=O)c3nnc(CC4CCCC4)[nH]3)ncn2)c1 [Example 452, 5-(cyclopentylmethyl)-N-(6-(5-((4-hydroxy-4-methylpentyl)oxy)-2-(trifluoromethyl)phenyl)pyrimidin-4-yl)-4H-1,2,4-triazole-3-carboxamide] | ≤ 100 nM |
| CC(C)(O)CCCOc1ccc(C(F)(F)F)c(-c2cc(NC(=O)c3nnc(CC4CCCCC4)[nH]3)ncn2)c1 [Example 453, 5-(cyclohexylmethyl)-N-(6-(5-((4-hydroxy-4-methylpentyl)oxy)-2-(trifluoromethyl)phenyl)pyrimidin-4-yl)-4H-1,2,4-triazole-3-carboxamide] | ≤ 100 nM |
| O=C(Nc1cc(-c2cc(OCC3CCOCC3)ccc2C(F)(F)F)ncn1)c1nnc(Cc2ccccc2)[nH]1 [Example 454, 5-benzyl-N-(6-(5-((tetrahydro-2H-pyran-4-yl)methoxy)-2-(trifluoromethyl)phenyl)pyrimidin-4-yl)-4H-1,2,4-triazole-3-carboxamide] | ≤ 100 nM |
| O=C(Nc1cc(-c2cc(OCC3CCOCC3)ccc2C(F)(F)F)ncn1)c1nnc(Cc2ccccc2F)[nH]1 [Example 455, 5-(2-fluorobenzyl)-N-(6-(5-((tetrahydro-2H-pyran-4-yl)methoxy)-2-(trifluoromethyl)phenyl)pyrimidin-4-yl)-4H-1,2,4-triazole-3-carboxamide] | ≤ 100 nM |
